This note sets out measurements from US20090325957A1, “MORPHOLINO PYRIMIDINE DERIVATIVES USEFUL IN THE TREATMENT OF PROLIFERATIVE DISORDERS” (ASTRAZENECA AB, priority 2006, published 2009).

The experiment has as its target recombinant mTOR (Homo sapiens, UniProt P42345). The experiment is described as follows: In vitro mTOR kinase assay (AlphaScreen), Test (a). The format is biochemical. As to the method:
(a) In Vitro mTOR Kinase Assay
The assay used AlphaScreen technology (Gray et al., Analytical Biochemistry, 2003, 313: 234-245) to determine the ability of test compounds to inhibit phosphorylation by recombinant mTOR.
The HEK293 FLAG-tagged mTOR (1362-2549) stable cell line was routinely maintained at 37° C. with 5% CO2 up to a confluency of 70-90% in Dulbecco's modified Eagle's growth medium (DMEM; Invitrogen Limited, Paisley, UK Catalogue No. 41966-029) containing 10% heat-inactivated foetal calf serum (FCS; Sigma, Poole, Dorset, UK, Catalogue No. F0392), 1% L-glutamine (Gibco, Catalogue No. 25030-024) and 2 mg/ml Geneticin (G418 sulfate; Invitrogen Limited, UK Catalogue No. 10131-027). Following expression in the mammalian HEK293 cell line, expressed protein was purified using the FLAG epitope tag using standard purification techniques.
Test compounds were prepared as 10 mM stock solutions in DMSO and diluted into water as required to give a range of final assay concentrations. Aliquots (2 μl) of each compound dilution were placed into a well of a Greiner 384-well low volume (LV) white polystyrene plate (Greiner Bio-one).
Control wells that produced a maximum signal corresponding to maximum enzyme activity were created by using 5% DMSO instead of test compound. […] These assay solutions were incubated for 2 hours at room temperature.
Each reaction was stopped by the addition of 10 μl of a mixture of EDTA (50 mM), bovine serum albumin (BSA; 0.5 mg/mL) and Tris-HCl pH7.4 buffer (50 mM) containing
p70 S6 Kinase (T389) 1A5 Monoclonal Antibody (Cell Signalling Technology, Catalogue No. 9206B) and AlphaScreen Streptavidin donor and Protein A acceptor beads (200 ng; Perkin Elmer, Catalogue No. 6760002B and 6760137R respectively) were added and the assay plates were left for about 20 hours at room temperature in the dark. The resultant signals arising from laser light excitation at 680 nm were read using a Packard Envision instrument.
Phosphorylated biotinylated peptide is formed in situ as a result of mTOR mediated phosphorylation. The phosphorylated biotinylated peptide that is associated with AlphaScreen Streptavidin donor beads forms a complex with the p70 S6 Kinase (T389) 1A5 Monoclonal Antibody that is associated with Alphascreen Protein A acceptor beads. Upon laser light excitation at 680 nm, the donor bead: acceptor bead complex produces a signal that can be measured. Accordingly, the presence of mTOR kinase activity results in an assay signal. In the presence of an mTOR kinase inhibitor, signal strength is reduced.
mTOR enzyme inhibition for a given test compound was expressed as an IC50 value.
In general terms: Alpha assays give light when donor and acceptor beads are brought close together.

[1] abbreviates: average value, read-out: Test (a) average IC50.

Several values for one entry are separate records, joined by “and”; a condition that tells them apart may be missing. Equal entries are not always repeated. Where two headings read alike, the source gives them in different places.

Sequence of recombinant mTOR (P42345 1362-2549): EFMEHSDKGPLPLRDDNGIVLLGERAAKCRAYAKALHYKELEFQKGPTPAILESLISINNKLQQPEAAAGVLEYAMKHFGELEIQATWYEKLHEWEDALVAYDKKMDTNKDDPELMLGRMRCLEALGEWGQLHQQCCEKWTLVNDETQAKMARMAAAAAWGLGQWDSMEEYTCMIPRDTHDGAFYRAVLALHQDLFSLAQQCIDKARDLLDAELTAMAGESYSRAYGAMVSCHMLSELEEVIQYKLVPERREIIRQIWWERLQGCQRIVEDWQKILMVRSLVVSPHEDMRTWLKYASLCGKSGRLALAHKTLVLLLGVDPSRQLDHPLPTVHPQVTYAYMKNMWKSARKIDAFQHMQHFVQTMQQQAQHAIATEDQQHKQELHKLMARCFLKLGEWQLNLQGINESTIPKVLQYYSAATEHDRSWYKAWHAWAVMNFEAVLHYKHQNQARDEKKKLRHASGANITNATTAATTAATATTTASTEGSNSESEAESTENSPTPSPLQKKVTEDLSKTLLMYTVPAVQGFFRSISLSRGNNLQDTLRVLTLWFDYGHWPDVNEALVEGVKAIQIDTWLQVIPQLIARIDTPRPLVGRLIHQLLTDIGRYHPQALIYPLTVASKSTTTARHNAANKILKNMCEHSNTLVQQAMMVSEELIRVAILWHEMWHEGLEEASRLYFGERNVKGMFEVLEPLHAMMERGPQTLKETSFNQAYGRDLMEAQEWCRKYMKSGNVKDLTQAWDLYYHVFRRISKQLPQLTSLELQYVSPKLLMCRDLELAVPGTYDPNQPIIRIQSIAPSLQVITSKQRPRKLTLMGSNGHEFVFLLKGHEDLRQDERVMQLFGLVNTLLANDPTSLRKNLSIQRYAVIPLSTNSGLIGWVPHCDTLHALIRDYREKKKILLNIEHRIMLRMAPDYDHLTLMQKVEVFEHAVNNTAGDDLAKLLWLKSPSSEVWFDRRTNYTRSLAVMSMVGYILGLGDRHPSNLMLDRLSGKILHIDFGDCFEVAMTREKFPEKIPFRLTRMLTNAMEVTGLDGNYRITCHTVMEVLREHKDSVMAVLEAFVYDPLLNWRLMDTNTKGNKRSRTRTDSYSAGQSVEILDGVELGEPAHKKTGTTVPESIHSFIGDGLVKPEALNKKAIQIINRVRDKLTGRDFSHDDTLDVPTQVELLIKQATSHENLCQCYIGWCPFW

The term IC50 denotes the point on the concentration scale where inhibition reaches its midpoint. Regarding `CCCCS(=O)(=O)Nc1ccc(-c2nc(CS(C)(=O)=O)cc(N3CCOCC3)n2)cc1` [Example 3c, N-[4-[4-(methylsulfonylmethyl)-6-morpholin-4-yl-pyrimidin-2-yl]phenyl]butane-1-sulfonamide], under setting [1], the IC50 was found to be 6 µM. Consider `CCS(=O)(=O)Nc1ccc(-c2nc(CS(C)(=O)=O)cc(N3CCOCC3)n2)cc1` [Example 3a, N-[4-[4-(methylsulfonylmethyl)-6-morpholin-4-yl-pyrimidin-2-yl]phenyl]ethanesulfonamide], for which the IC50 under setting [1] was found to be 1.4 µM. On the same count and under the same terms, for `CS(=O)(=O)Cc1cc(N2CCOCC2)nc(-c2ccc(NS(=O)(=O)Cc3ccc(F)cc3)cc2)n1` [Example 3d, 1-(4-fluorophenyl)-N-[4-[4-(methylsulfonylmethyl)-6-morpholin-4-yl-pyrimidin-2-yl]phenyl]methanesulfonamide] the value was 7.1 µM. Regarding `CS(=O)(=O)Cc1cc(N2CCOCC2)nc(-c2ccc(NS(=O)(=O)C3CC3)cc2)n1` [Example 3, N-[4-[4-(Methylsulfonylmethyl)-6-morpholin-4-yl-pyrimidin-2-yl]phenyl]cyclopropanesulfonamide], under setting [1], the IC50 turned out to be 0.88 µM.

Consider `CCCS(=O)(=O)Nc1ccc(-c2nc(CS(C)(=O)=O)cc(N3CCOCC3)n2)cc1` [Example 3b, N-[4-[4-(methylsulfonylmethyl)-6-morpholin-4-yl-pyrimidin-2-yl]phenyl]propane-1-sulfonamide], for which, under setting [1], the IC50 is 4 µM. Consider `CS(=O)(=O)Cc1cc(N2CCOCC2)nc(-c2ccc(CNS(C)(=O)=O)cc2)n1` [Example 2, N-[[4-[4-(Methylsulfonylmethyl)-6-morpholin-4-yl-pyrimidin-2-yl]phenyl]methyl]methanesulfonamide], for which the concentration for half-maximal inhibition (IC50) under setting [1] is 6.8 µM.

Take `C[C@H]1COCCN1c1cc(CS(C)(=O)=O)nc(-c2ccc(NS(C)(=O)=O)cc2)n1` [Example 6, N-[4-[4-[(3S)-3-Methylmorpholin-4-yl]-6-(methylsulfonylmethyl)pyrimidin-2-yl]phenyl]methanesulfonamide]: under setting [1], the IC50 was 1 µM. The same measure, in the same setting: for `C[C@H]1COCCN1c1cc(CS(C)(=O)=O)nc(-c2ccc(CNS(C)(=O)=O)cc2)n1` [Example 5, N-[[4-[4-[(3S)-3-Methylmorpholin-4-yl]-6-(methylsulfonylmethyl)pyrimidin-2-yl]phenyl]methyl]methanesulfonamide] the value was 4.5 µM. In the case of `CS(=O)(=O)Cc1cc(N2CCOCC2)nc(-c2ccc(NS(C)(=O)=O)c(CO)c2)n1` [Example 1, N-[2-(Hydroxymethyl)-4-[4-(methylsulfonylmethyl)-6-morpholin-4-yl-pyrimidin-2-yl]phenyl]methanesulfonamide], under setting [1], the IC50 amounted to 5 µM. `CS(=O)(=O)Cc1cc(N2CCOCC2)nc(-c2ccc(NS(C)(=O)=O)cc2)n1` [Example 4, N-[4-[4-(Methylsulfonylmethyl)-6-morpholin-4-yl-pyrimidin-2-yl]phenyl]methanesulfonamide]: the IC50 is 2.6 µM under setting [1]; 3.32 µM and 2.49 µM and 2.25 µM (single values, measured on three occasions, read-out: IC50 versus mTOR kinase).
